Laboratory results from patent US20060223874A1, “Heterocyclic reverse transcriptase inhibitors” (Roche Palo Alto LLC, priority 2005, published 2006).

Legend:
[1] = target: Wild Type HIV-RT (Human immunodeficiency virus type 1 group M subtype B, UniProt P03366); assay: HIV Reverse Transcriptase Assay: Inhibitor IC50 Determination; type: biochemical; conditions: purified recombinant HIV-1 RT, poly(rA)/oligo(dT)16 template-primer, 37° C. for 30 min
Method: HIV Reverse Transcriptase Assay: Inhibitor IC50 Determination
HIV-1 RT assay was carried out in 96-well Millipore MultiScreen MADVNOB50 plates using purified recombinant enzyme and a poly(rA)/oligo(dT)16 template-primer in a total volume of 50 μL. The assay constituents were 50 mM Tris/HCl, 50 mM NaCl, 1 mM EDTA, 6 mM MgCl2, 5 μM dTTP, 0.15 μCi [^3H] dTTP, 5 μg/ml poly (rA) pre annealed to 2.5 μg/ml oligo (dT)16 and a range of inhibitor concentrations in a final concentration of 10% DMSO. Reactions were initiated by adding 4 nM HIV-1 RT and after incubation at 37° C. for 30 min, they were stopped by the addition of 50 μl ice cold 20% TCA and allowed to precipitate at 4° C. for 30 min. The precipitates were collected by applying vacuum to the plate and sequentially washing with 3×200 μl of 10% TCA and 2×200 μl 70% ethanol. Finally, the plates were dried and radioactivity counted in a Packard TopCounter after the addition of 25 μl scintillation fluid per well. IC50's were calculated by plotting % inhibition versus log10 inhibitor concentrations. (TABLE 2)

COc1ccc(Cc2n[nH]c(=O)n2C)c(F)c1Oc1cc(Cl)cc(C#N)c1 [Compound I-1, 3-chloro-5-[2-fluoro-6-methoxy-3-(4-methyl-5-oxo-4,5-dihydro-1H-[1,2,4]triazol-3-ylmethyl)-phenoxy]-benzonitrile]
IC50 [1]: 45.6 nM
melting point: 219.1 to 220.1 °C

COc1ccc(Cc2n[nH]c(=O)n2C)c(F)c1Oc1cc(C#N)cc(C(F)F)c1 [Compound I-2, 3-Difluoromethyl-5-[2-fluoro-6-methoxy-3-(4-methyl-5-oxo-4,5-dihydro-1H-[1,2,4]triazol-3-ylmethyl)-phenoxy]-benzonitrile]
IC50 [1]: 12.9 nM
